Laboratory results: ChEMBL document CHEMBL1133322, “The synthesis and vasopressin (AVP) antagonist activity of a novel series of N-aroyl-2,4,5,6-tetrahydropyrazolo[3,4-d]thieno[3,2-b]azepines” (Bioorg Med Chem Lett, 2000)
pIC50: −log10 of the molar value.

Tests used:
[1] = system: Rattus norvegicus; test: Urine volume was measured after 4 hours following oral compound dose of 3 mg/kg in rats deprived with food or water; assay type: functional
[2] = system: Rattus norvegicus; test: Urine volume was measured after 4 hours following oral compound dose of 10 mg/kg in a volume of 10 mL/kg (20% dimethylsulfoxide in 2.5% preboiled starch) in rats deprived with food or water; assay type: functional
[3] = molecular target: T1, Vasopressin V2 receptor (Homo sapiens, UniProt P30518); test: In vitro binding affinity to human V2 receptor
T1 sequence (P30518 whole entry): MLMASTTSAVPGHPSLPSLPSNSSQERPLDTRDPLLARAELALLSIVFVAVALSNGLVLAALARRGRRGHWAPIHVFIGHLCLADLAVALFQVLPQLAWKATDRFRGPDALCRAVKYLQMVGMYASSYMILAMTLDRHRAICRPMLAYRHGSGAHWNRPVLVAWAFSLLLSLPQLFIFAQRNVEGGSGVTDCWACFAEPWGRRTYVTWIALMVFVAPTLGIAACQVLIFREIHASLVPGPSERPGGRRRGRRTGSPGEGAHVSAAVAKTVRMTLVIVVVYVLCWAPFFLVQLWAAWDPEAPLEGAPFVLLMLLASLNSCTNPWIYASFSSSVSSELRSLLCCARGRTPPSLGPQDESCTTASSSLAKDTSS

[4] = molecular target: T2, Vasopressin V1a receptor (Homo sapiens, UniProt P37288); test: In vitro binding affinity to human V1a receptor
Target sequence in this assay (P37288 whole entry): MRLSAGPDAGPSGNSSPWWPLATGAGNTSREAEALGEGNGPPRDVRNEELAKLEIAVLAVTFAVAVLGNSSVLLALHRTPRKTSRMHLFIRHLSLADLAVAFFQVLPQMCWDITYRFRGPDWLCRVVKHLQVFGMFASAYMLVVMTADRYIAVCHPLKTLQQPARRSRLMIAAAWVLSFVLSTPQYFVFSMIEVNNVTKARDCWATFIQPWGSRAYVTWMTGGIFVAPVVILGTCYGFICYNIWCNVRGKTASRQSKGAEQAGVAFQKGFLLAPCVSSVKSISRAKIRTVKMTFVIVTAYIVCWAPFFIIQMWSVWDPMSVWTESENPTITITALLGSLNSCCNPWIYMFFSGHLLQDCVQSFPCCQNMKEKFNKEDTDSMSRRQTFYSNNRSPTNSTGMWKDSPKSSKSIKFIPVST

[5] = system: Rattus norvegicus; test: Urine volume was measured after 4 hours following oral compound dose of 10 mg/kg in rats deprived of food or water (water-loaded 30 mL/kg + 0.4 ug/kg of AVP intraperitoneal); assay type: functional
[6] = molecular target: T3, Vasopressin V2 receptor (Rattus norvegicus, UniProt Q00788); test: In vitro for its binding affinity to rat V2 receptor
T3 sequence (Q00788 whole entry): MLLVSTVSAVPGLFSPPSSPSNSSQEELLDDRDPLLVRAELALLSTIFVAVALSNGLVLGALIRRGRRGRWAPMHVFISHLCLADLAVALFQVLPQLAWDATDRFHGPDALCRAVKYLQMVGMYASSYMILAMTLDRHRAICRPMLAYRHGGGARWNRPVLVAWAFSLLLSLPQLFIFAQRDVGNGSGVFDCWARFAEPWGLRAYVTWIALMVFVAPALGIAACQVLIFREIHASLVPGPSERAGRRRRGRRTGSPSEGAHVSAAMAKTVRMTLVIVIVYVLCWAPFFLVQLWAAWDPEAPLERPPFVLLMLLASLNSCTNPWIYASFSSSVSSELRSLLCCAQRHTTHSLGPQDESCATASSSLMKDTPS

[7] = molecular target: Vasopressin V1a receptor (Rattus norvegicus, UniProt P30560); test: In vitro binding affinity for rat V1a receptor
Vasopressin V1a receptor (Rattus norvegicus, UniProt P30560), sequence (P30560 whole entry): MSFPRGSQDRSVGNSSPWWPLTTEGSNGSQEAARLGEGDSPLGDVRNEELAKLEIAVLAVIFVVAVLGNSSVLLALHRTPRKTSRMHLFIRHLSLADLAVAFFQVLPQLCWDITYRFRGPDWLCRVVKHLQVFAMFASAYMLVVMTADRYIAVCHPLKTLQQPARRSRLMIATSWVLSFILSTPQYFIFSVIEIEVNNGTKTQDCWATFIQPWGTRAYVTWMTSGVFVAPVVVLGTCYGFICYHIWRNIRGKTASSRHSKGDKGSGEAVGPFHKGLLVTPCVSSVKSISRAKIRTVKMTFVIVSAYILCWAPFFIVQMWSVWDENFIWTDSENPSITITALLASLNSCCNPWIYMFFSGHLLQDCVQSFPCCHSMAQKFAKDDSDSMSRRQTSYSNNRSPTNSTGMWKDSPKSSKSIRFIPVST

[8] = molecular target: T2, Vasopressin V1a receptor; test: In vitro inhibition against human V1a receptor at 10 uM
Target sequence in this assay (P37288 whole entry, looked up): as the sequence (P37288 whole entry) above

[9] = molecular target: T1, Vasopressin V2 receptor; test: In vitro inhibition against human V2 receptor at 10 uM
[10] = molecular target: T3, Vasopressin V2 receptor; test: Binding affinity to rat V2 receptor
[11] = molecular target: Vasopressin V1a receptor (Rattus norvegicus) (UniProt P30560); test: In vitro inhibition against rat V1a receptor at 10 uM
Vasopressin V1a receptor (Rattus norvegicus), sequence (P30560 whole entry, looked up): as the sequence (P30560 whole entry) above

| SMILES | Urine volume [2] | pIC50 [3] | pIC50 [4] | Urine volume [5] | also measured |
| --- | --- | --- | --- | --- | --- |
| O=C(Nc1ccc(C(=O)N2Cc3cccn3Cc3ccccc32)c(Cl)c1)c1ccccc1-c1ccccc1 | 27 ml 4hr-1 | 8.57 | 6.43 |  | Urine volume [1]: 20 ml 4hr-1 |
| Cn1cc2c(n1)-c1sccc1N(C(=O)c1ccc(NC(=O)C3CCCCC3)cc1)CC2 |  |  |  | 9 ml 4hr-1 |  |
| O=C(Nc1ccc(C(=O)N2CCc3c[nH]nc3-c3sccc32)c(Cl)c1)c1ccccc1-c1ccccc1 | 27 ml 4hr-1 | 8.77 |  |  | Urine volume [1]: 22 ml 4hr-1 |
| Cc1ccc(F)cc1C(=O)Nc1ccc(C(=O)N2CCc3c[nH]nc3-c3sccc32)cc1 |  | 7.15 |  | 18 ml 4hr-1 | pIC50 [6]: 7.16 |
| Cc1ccccc1C(=O)Nc1ccc(C(=O)N2CCc3c[nH]nc3-c3sccc32)cc1 |  | 6.89 | 6.62 | 21 ml 4hr-1 | pIC50 [7]: 5.68; pIC50 [6]: 6.92 |
| Cc1ccc(F)cc1C(=O)Nc1ccc(C(=O)N2Cc3cccn3Cc3ccccc32)c(Cl)c1 [LIXIVAPTAN] | 22 ml 4hr-1 |  |  |  | Urine volume [1]: 20 ml 4hr-1 |
| Cc1ccc(F)cc1C(=O)Nc1ccc(C(=O)N2CCCCc3sccc32)c(Cl)c1 |  |  |  | 4 ml 4hr-1 |  |
| Cc1ccccc1C(=O)Nc1ccc(C(=O)N2CCc3cn(C(=O)c4ccccc4C)nc3-c3sccc32)cc1 |  |  |  | 14 ml 4hr-1 | inhibition [8]: 88%; inhibition [9]: 88% |
| Cn1cc2c(n1)-c1sccc1N(C(=O)c1ccc(NC(=O)c3ccc(Cl)cc3Cl)cc1)CC2 |  | 6.82 | 5.39 | 6 ml 4hr-1 | pIC50 [7]: 5.68; pIC50 [10]: 7.42 |
| O=C(Nc1ccc(C(=O)N2CCc3c[nH]nc3-c3sccc32)cc1)c1ccc(F)cc1Cl | 15 ml 4hr-1 | 6.85 |  |  |  |
| O=C(Nc1ccc(C(=O)N2CCCCc3sc(Cl)cc32)cc1)c1ccc(Cl)cc1Cl |  |  |  | 8 ml 4hr-1 |  |
| O=C(Nc1ccc(C(=O)N2CCCCc3sc(Cl)cc32)c(Cl)c1)c1ccccc1-c1ccccc1 | 22 ml 4hr-1 |  |  |  |  |
| O=C(Nc1ccc(C(=O)N2CCCCc3sccc32)c(Cl)c1)c1ccccc1-c1ccccc1 | 19 ml 4hr-1 |  | 7.07 |  | pIC50 [10]: 8.92 |
| O=C(Nc1ccc(C(=O)N2CCCCc3sc(Cl)cc32)cc1)c1ccccc1-c1ccccc1 | 20 ml 4hr-1 |  | 7.09 |  | pIC50 [10]: 8.49 |
| O=C(Nc1ccc(C(=O)N2CCc3c[nH]nc3-c3sccc32)c(Cl)c1)c1cc(Cl)ccc1F | 12 ml 4hr-1 |  |  |  | inhibition [11]: 18% |
| Cc1ccc(F)cc1C(=O)Nc1ccc(C(=O)N2CCc3c[nH]nc3-c3sccc32)c(Cl)c1 | 7 ml 4hr-1 |  |  |  | pIC50 [7]: 4.91; inhibition [8]: 69%; pIC50 [6]: 8.22 |
| Cc1ccccc1C(=O)Nc1ccc(C(=O)N2CCc3cn(C)nc3-c3sccc32)cc1 | 3 ml 4hr-1 | 6.66 | 5.76 |  | pIC50 [7]: 5.70; pIC50 [10]: 7.62 |
| O=C(Nc1ccc(C(=O)N2Cc3cccn3Cc3ccccc32)cc1)c1ccccc1-c1ccccc1 | 21 ml 4hr-1 |  |  |  |  |
| O=C(Nc1ccc(C(=O)N2Cc3cccn3Cc3ccccc32)cc1)c1ccc(Cl)cc1Cl |  |  |  | 16 ml 4hr-1 |  |
